* marks the point of attachment. Octanoyl = CCCCCCCC(=O)*
Experiments:
K.p. KPC = experiment: MIC assay, sensitizing effect of peptide on rifampicin or colistin (CRE); format: cell-based, Klebsiella pneumoniae; details: peptide 4 ug/ml
Description: (§1) All MIC assay experiments were performed using the Clinical and Laboratory Standards Institute (CLSI) guidelines (Clinical & Laboratory Standards Institute: CLSI Guidelines, 2017). Bacterial cells cultured overnight were diluted to 0.05 McFarland standard using McFarland (KIT […] PLUS INSTRUMENT, Biomerieux) in Muller Hinton II Broth (cation-adjusted) (Difco). The cells were inoculated at 1.5×10^5 CFU per 200 μL solution of each well in a 96-well plate. The peptide and the antibiotic were prepared using 2-fold serially diluted concentrations. […] Incubation was performed at 37° C. for 18 hours, and then absorbance was measured at 600 nm using an EPOCH2 microplate reader (BioTek, Winooski, USA) to calculate a MIC value. The MIC value was defined as a concentration of the antibiotic or peptide at which bacterial growth was inhibited to a level of lower than 10% growth of the positive control. Fold reduction was calculated using the following expression.
(§2) ATCC 25922, A.b. ATCC 17978, K.p. ATCC 700603, and P.a. ATCC 27853, or CRE (E.c. NDM-1, K.p. NDM-1, or K.p. KPC) (FIGS. 9 and 10).

[1] = tested on: E.c. ATCC 25922, A.b. ATCC 17978, K.p. ATCC 700603, P.a. ATCC 27853, or CRE (E.c. NDM-1, K.p. NDM-1, or K.p. KPC); experiment: MIC assay, comparison with L9P on rifampicin or colistin; format: cell-based; details: FIGS. 9 and 10
Description: as §1, §2

[2] = tested on: inner membrane of E. coli ATCC 25922; experiment: Enzyme assay, inner membrane leakage (β-galactosidase release, ONPG); format: cell-based; details: 1.5 mM ONPG
Description: It was observed, through an enzyme assay, whether the sensitizing peptide destroyed the outer and inner membranes of Gram-negative bacteria. In the presence of the sensitizing peptide, it was observed whether in a case where 1.5 mM ONPG was used together therewith, β-galactosidase was released from E. coli ATCC 25922 for the inner membrane, and whether in a case where 200 μM CENTA was used together therewith, β-lactamase was released from E. coli NDM-1 for the outer membrane.
To determine leakage of the inner membrane, release of the cytoplasmic enzyme β-galactosidase was evaluated. The bacteria were diluted to OD600=1 and 1.5 mM ONPG (O-nitrophenyl-β-D-galactopyranoside) was added. Absorbance of a product of enzyme reaction was measured at 420 nm. The other procedures were carried out in the same manner as in the experiment for outer membrane destruction.

Ec NDM-1 = experiment: MIC assay, sensitizing effect of peptide on rifampicin (CRE); format: cell-based, E. coli; details: FIG. 9E; Ec NDM-1 (CRE); peptide 4 ug/ml
Description: as §1, §2

A. baumannii ATCC 17978 = experiment: Neutropenic mouse thigh infection model; format: in vivo
Description: To induce neutropenia in 6-week-old female ICR (CD-1) mice weighing 23 g to 27 g (Orient Bio, Seongnam, Korea), the mice were treated (subcutaneously injected) with 150 mg/kg and 100 mg/kg of cyclophosphamide (CP), respectively, 5 days and 2 days before thigh infection. A. baumannii ATCC 17978 was harvested, washed, and suspended in sterile saline. The mice were anesthetized and infected with 1×10^5 CFU A. baumannii ATCC 17978 in the right and left thighs. […] The sensitizing peptide CMP1401 was administered by intraperitoneal injection 1, 3, 5, and 7 hours after infection. The mice were euthanized 9 hours after bacterial injection. Both thighs were harvested and suspended in sterile saline. The thighs were homogenized and serially diluted in sterile saline. The homogenized thighs were applied to tryptic soy agar plates, incubated overnight at 37° C., and the number of colonies was counted.

OctA-KKALKLAKKPLKLLK-NH2 (Octanoyl-KKALKLAKKPLKLLK-NH2) [CMP1401]
Decreased MIC value of rifampicin at peptide concentration of 4 ug/ml (K.p. KPC; FIG. 9G): 7.8 ng/mL
Decreased MIC value of colisitin at peptide concentration of 4 ug/ml (K.p. KPC; FIG. 10C): 250 ng/mL
sensitizing effect on rifampicin or colistin compared with L9P [1]: very good sensitizing effect
destruction of inner membrane (β-galactosidase release) [2]: did not destroy these membranes
Decreased MIC value of rifampicin at peptide concentration of 4 ug/ml (Ec NDM-1): 4 ng/mL
decrease in number of colonies compared with rifampicin alone (A. baumannii ATCC 17978; CMP1401 100 mg/kg in the presence of 20 mg/kg of rifampicin): 14 fold
number of colonies, peptide administered alone (A. baumannii ATCC 17978; CMP1401 alone at 50 mg/kg): No changes were observed in the number of colonies
therapeutic efficacy of combination therapy with rifampicin (A. baumannii ATCC 17978; rifampicin and CMP1401): excellent therapeutic efficacy
